Results: patent US20160303245A1, “FATTY ACID DERIVATIVES OF DIMERIC INHIBITORS OF PSD-95” (UNIVERSITY OF COPENHAGEN, priority 2013, published 2016)
Several values for one entry are separate records, joined by “and”; a condition that tells them apart may be missing. Equal values may be shown once. Read-outs that look alike come from different tables or passages of the source.

What was measured:
[1] = target: T1, HSA (Homo sapiens, UniProt P02768); assay: Transil XL HSA binding assay (immobilized HSA, unbound compound quantified by RP-HPLC)
T1 construct: purchased Sovicell GMBH, Leipzig, Germany
Experimental: The synthesized FA-linked dimeric ligands (1-12) were evaluated for their HSA affinity using a Transil^XL HSA binding assay kit (Sovicell GMBH, Leipzig, Germany). […] The assay kit consisted of prefilled wells with increasing concentrations of immobilized HSA as well as two control wells without HSA. The HSA had been immobilized in a random fashion to ensure that all binding sites on HSA were available. To conduct the assay, the wells were incubated with a known concentration of the tested compounds, and the unbound amount of compound was quantified using analytical RP-HPLC (C8 column). The fraction of unbound drug (fu) for each data point was calculated from the RP-HPLC data by comparison to a control sample without HSA. […] In eq. 1, it is assumed that the concentration of drug-bound HSA ([HSA-D]) is much lower than the total concentration of HSA in the well ([HSA-D]<<cHSA). The assay kit has been designed such that the assumption is valid for compounds where fu>1%. The calculated KD-values were used to calculate fb at physiological concentration of HSA (588 μM) using equation 2.

[2] = target: PSD-95 PDZ1-2 (Homo sapiens, UniProt P78352); assay: In vitro fluorescence polarization (FP) competition binding assay, in TBS and modified with 1% HSA
Experimental: Affinity to PSD-95 was measured using an in vitro fluorescence polarization (FP) assay as described by Bach et al (PNAS USA, 2012, 109, 3317-3322). First, a saturation binding curve was obtained to determine KD values for the interaction between a dimeric fluorescent probe and PSD-95 PDZ1-2. Increasing concentrations of PDZ1-2 were added to a constant concentration (0.5 nM) of the probe. The fluorescence polarization of the samples was measured at excitation/emission wavelengths of 635/670 nm and the FP values were fitted to a one site binding model using the program GraphPad Prism. […] The FP values were fitted to a one site competition (variable slope) model in GraphPad Prism. The resulting IC50 were converted to competition inhibition constants, Ki values, as described (Nikolovska-Coleska et al, Anal Biochem, 2004, 332, 261-273). The modified FP assay was conducted as described above with 1% HSA in the assay. The synthesized FA-linked dimeric ligands were evaluated for their affinity to PSD-95 PDZ1-2 in the FP assay. […] We first measured the affinities using a simple tris-buffered saline (TBS) buffer (Table 2, FIG. 3A); but furthermore, we investigated if HSA influenced the ability of the FA-linked dimers to bind PSD95 PDZ1-2 by conducting the FP assay with HSA present in the assay buffer (Table 2, FIG. 3B). […] For a traditional small-molecule drug, it is commonly accepted that the unbound fraction of the drug is free to diffuse across membranes and exerts the physiological effect by interacting with its target (Berezhkovskiy et al, J Pharm Sci 2007, 96, 249-257). I.e. if the drug is bound to another molecule, then it cannot interact with the target at the same time.

[3] = FP in TBS with 1% HSA (~150 μM), mean ± SEM, n ≧ 3, read-out: Ki(PSD95) + HSA

Chain of PSD-95 PDZ1-2 (P78352 61-249 limits assumed): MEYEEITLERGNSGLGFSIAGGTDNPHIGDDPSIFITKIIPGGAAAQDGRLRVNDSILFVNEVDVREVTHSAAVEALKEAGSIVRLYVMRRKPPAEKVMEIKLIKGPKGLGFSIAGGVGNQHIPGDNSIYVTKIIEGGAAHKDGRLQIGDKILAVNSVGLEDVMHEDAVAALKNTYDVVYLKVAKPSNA
T1 sequence (P02768 25-609): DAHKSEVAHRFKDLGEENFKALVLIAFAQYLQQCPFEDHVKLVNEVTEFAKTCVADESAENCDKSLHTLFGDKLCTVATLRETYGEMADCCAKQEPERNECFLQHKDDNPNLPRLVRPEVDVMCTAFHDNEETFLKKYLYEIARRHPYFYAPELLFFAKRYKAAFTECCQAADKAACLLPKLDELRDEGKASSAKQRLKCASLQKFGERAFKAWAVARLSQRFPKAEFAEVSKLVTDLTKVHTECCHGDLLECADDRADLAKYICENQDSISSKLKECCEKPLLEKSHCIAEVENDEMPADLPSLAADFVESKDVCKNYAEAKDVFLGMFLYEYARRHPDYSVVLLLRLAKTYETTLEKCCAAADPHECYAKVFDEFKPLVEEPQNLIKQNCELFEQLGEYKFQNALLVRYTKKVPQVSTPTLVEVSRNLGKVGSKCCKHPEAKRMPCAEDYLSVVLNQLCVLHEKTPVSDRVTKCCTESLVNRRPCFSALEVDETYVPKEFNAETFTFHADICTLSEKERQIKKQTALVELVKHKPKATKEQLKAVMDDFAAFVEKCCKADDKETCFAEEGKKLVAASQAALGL

fraction unbound [1]	Structure (SMILES)	other results
0.268	CCCCCCCCCCCCCCCCCC(=O)N[C@@H](CCC(=O)N(CCOCCOCCC(=O)N[C@H](C(=O)N[C@@H](CCC(=O)O)C(=O)N[C@H](C(=O)N[C@@H](CC(=O)O)C(=O)N[C@H](C(=O)O)C(C)C)[C@@H](C)O)[C@@H](C)CC)CCOCCOCCC(=O)N[C@H](C(=O)N[C@@H](CCC(=O)O)C(=O)N[C@H](C(=O)N[C@@H](CC(=O)O)C(=O)N[C@H](C(=O)O)C(C)C)[C@@H](C)O)[C@@H](C)CC)C(=O)O [Compound 15]	Kd [1]: 55 ± 3.4 µM
0.078	CCCCCCCCCCCCCCCCCC(=O)NCCCCC(=O)N(CCOCCOCCC(=O)N[C@H](C(=O)N[C@@H](CCC(=O)O)C(=O)N[C@H](C(=O)N[C@@H](C)C(=O)N[C@H](C(=O)O)C(C)C)[C@@H](C)O)[C@@H](C)CC)CCOCCOCCC(=O)N[C@H](C(=O)N[C@@H](CCC(=O)O)C(=O)N[C@H](C(=O)N[C@@H](C)C(=O)N[C@H](C(=O)O)C(C)C)[C@@H](C)O)[C@@H](C)CC [Compound 11]	Ki [2, 3]: 1890 ± 100 nM
0.083	CC[C@H](C)[C@H](NC(=O)CCOCCOCCN(CCOCCOCCC(=O)N[C@H](C(=O)N[C@@H](CCC(=O)O)C(=O)N[C@H](C(=O)N[C@@H](C)C(=O)N[C@H](C(=O)O)C(C)C)[C@@H](C)O)[C@@H](C)CC)C(=O)CCCCNC(=O)CCCCCCCCCCCCCCCCC(=O)O)C(=O)N[C@@H](CCC(=O)O)C(=O)N[C@H](C(=O)N[C@@H](C)C(=O)N[C@H](C(=O)O)C(C)C)[C@@H](C)O [Compound 12]	
0.436	CC[C@H](C)[C@H](NC(=O)CCOCCOCCN(CCOCCOCCC(=O)N[C@H](C(=O)N[C@@H](CCC(=O)O)C(=O)N[C@H](C(=O)N[C@@H](CC(=O)O)C(=O)N[C@H](C(=O)O)C(C)C)[C@@H](C)O)[C@@H](C)CC)C(=O)CCCNC(=O)CCCCCCCCCCCCCCCCC(=O)O)C(=O)N[C@@H](CCC(=O)O)C(=O)N[C@H](C(=O)N[C@@H](CC(=O)O)C(=O)N[C@H](C(=O)O)C(C)C)[C@@H](C)O [Compound 14]	Kd [1]: 116 ± 7.6 µM
0.271	CCCCCCCCCCCC(=O)NCCCCC(=O)N(CCOCCOCCC(=O)N[C@H](C(=O)N[C@@H](CCC(=O)O)C(=O)N[C@H](C(=O)N[C@@H](C)C(=O)N[C@H](C(=O)O)C(C)C)[C@@H](C)O)[C@@H](C)CC)CCOCCOCCC(=O)N[C@H](C(=O)N[C@@H](CCC(=O)O)C(=O)N[C@H](C(=O)N[C@@H](C)C(=O)N[C@H](C(=O)O)C(C)C)[C@@H](C)O)[C@@H](C)CC [Compound 9]	
0.615	CC[C@H](C)[C@H](NC(=O)CCOCCOCCN(CCOCCOCCC(=O)N[C@H](C(=O)N[C@@H](CCC(=O)O)C(=O)N[C@H](C(=O)N[C@@H](C)C(=O)N[C@H](C(=O)O)C(C)C)[C@@H](C)O)[C@@H](C)CC)C(=O)CCCCNC(=O)CCCCCCCCCCC(=O)O)C(=O)N[C@@H](CCC(=O)O)C(=O)N[C@H](C(=O)N[C@@H](C)C(=O)N[C@H](C(=O)O)C(C)C)[C@@H](C)O [Compound 10]	

Second part, the compound before the results:

Structure (SMILES)	fraction unbound [1]	other results
CCCCCCCCCCCC(=O)N[C@@H](CCC(=O)N(CCOCCOCCC(=O)N[C@H](C(=O)N[C@@H](CCC(=O)O)C(=O)N[C@H](C(=O)N[C@@H](C)C(=O)N[C@H](C(=O)O)C(C)C)[C@@H](C)O)[C@@H](C)CC)CCOCCOCCC(=O)N[C@H](C(=O)N[C@@H](CCC(=O)O)C(=O)N[C@H](C(=O)N[C@@H](C)C(=O)N[C@H](C(=O)O)C(C)C)[C@@H](C)O)[C@@H](C)CC)C(=O)O [Compound 5]	0.147	
CC[C@H](C)[C@H](NC(=O)CCOCCOCCN(CCOCCOCCC(=O)N[C@H](C(=O)N[C@@H](CCC(=O)O)C(=O)N[C@H](C(=O)N[C@@H](CC(=O)O)C(=O)N[C@H](C(=O)O)C(C)C)[C@@H](C)O)[C@@H](C)CC)C(=O)[C@H](CCCNC(=N)N)NC(=O)[C@H](CCCNC(=N)N)NC(=O)[C@H](CCCNC(=N)N)NC(=O)[C@H](CCC(N)=O)NC(=O)[C@H](CCCNC(=N)N)NC(=O)[C@H](CCCNC(=N)N)NC(=O)[C@H](CCCCN)NC(=O)[C@H](CCCCN)NC(=O)[C@H](CCCNC(=N)N)NC(=O)CNC(=O)[C@@H](N)Cc1ccc(O)cc1)C(=O)N[C@@H](CCC(=O)O)C(=O)N[C@H](C(=O)N[C@@H](CC(=O)O)C(=O)N[C@H](C(=O)O)C(C)C)[C@@H](C)O [UCCB01-144, reference compound]		fb (%), HSA bound fraction ([1]; calculated from KD at physiological concentration of HSA (588 μM), equation 2): 65% and 65.3 ± 2.9%; fraction unbound ([1]; calculated from equation 2 at HSA concentration of 150 μM, read-out: fu (%), calculated fraction of unbound drug): 0.679; Kd ([1]; mean ± SEM, n = 3, read-out: KD(HSA)): 318 µM
CC[C@H](C)[C@H](NC(=O)CCOCCOCCN(CCOCCOCCC(=O)N[C@H](C(=O)N[C@@H](CCC(=O)O)C(=O)N[C@H](C(=O)N[C@@H](C)C(=O)N[C@H](C(=O)O)C(C)C)[C@@H](C)O)[C@@H](C)CC)C(=O)CC[C@H](NC(=O)CCCCCCCCCCCCCCCCC(=O)O)C(=O)O)C(=O)N[C@@H](CCC(=O)O)C(=O)N[C@H](C(=O)N[C@@H](C)C(=O)N[C@H](C(=O)O)C(C)C)[C@@H](C)O [Compound 8]	0.186	
CC[C@H](C)[C@H](NC(=O)CCOCCOCCN(CCOCCOCCC(=O)N[C@H](C(=O)N[C@@H](CCC(=O)O)C(=O)N[C@H](C(=O)N[C@@H](C)C(=O)N[C@H](C(=O)O)C(C)C)[C@@H](C)O)[C@@H](C)CC)C(=O)CCCNC(=O)CCCCCCCCCCC(=O)O)C(=O)N[C@@H](CCC(=O)O)C(=O)N[C@H](C(=O)N[C@@H](C)C(=O)N[C@H](C(=O)O)C(C)C)[C@@H](C)O [Compound 2]	0.247	
CCCCCCCCCCCCCCCCCC(=O)NCCCC(=O)N(CCOCCOCCC(=O)N[C@H](C(=O)N[C@@H](CCC(=O)O)C(=O)N[C@H](C(=O)N[C@@H](C)C(=O)N[C@H](C(=O)O)C(C)C)[C@@H](C)O)[C@@H](C)CC)CCOCCOCCC(=O)N[C@H](C(=O)N[C@@H](CCC(=O)O)C(=O)N[C@H](C(=O)N[C@@H](C)C(=O)N[C@H](C(=O)O)C(C)C)[C@@H](C)O)[C@@H](C)CC [Compound 3]	0.031	Kd [1]: 4.8 µM; Ki ([2]; FP data (TBS+HSA) corrected for calculated fu, read-out: Ki(PSD95), free ligand): 57.2 nM; Ki [2, 3]: 1890 ± 155 nM; Ki ([2]; FP in TBS, mean ± SEM, n ≧ 3, read-out: Ki(PSD95)): 11.1 nM
CC[C@H](C)[C@H](NC(=O)CCOCCOCCN(CCOCCOCCC(=O)N[C@H](C(=O)N[C@@H](CCC(=O)O)C(=O)N[C@H](C(=O)N[C@@H](C)C(=O)N[C@H](C(=O)O)C(C)C)[C@@H](C)O)[C@@H](C)CC)C(=O)CC[C@H](NC(=O)CCCCCCCCCCC(=O)O)C(=O)O)C(=O)N[C@@H](CCC(=O)O)C(=O)N[C@H](C(=O)N[C@@H](C)C(=O)N[C@H](C(=O)O)C(C)C)[C@@H](C)O [Compound 6]	0.301	
